Counter-ions that a name gives are not always drawn.
The compounds below were run against T1, HIV integrase (Human immunodeficiency virus type 1 group M subtype B, UniProt P12497, F1332H) (assay: Determination of enzyme (HIV integrase) inhibitory activity). Conditions: recombinant HIV integrase (F185H), strand transfer ELISA, absorbance at 450 nm.
T1 construct: HIV integrase full length gene; made in house; host or cells: Escherichia coli BL21(DE3), plasmid pET21a-INH
Type: biochemical
In short: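 Full-length integrase with F185H, expressed in E. coli and purified, was reacted for 60 min at 37 °C with compound and biotinylated donor DNA bound to streptavidin plates. Target DNA was added for 10 min, then anti-digoxigenin-peroxidase detection at A450; IC50 from % inhibition versus enzyme-free blank.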

SMILES	IC50 [nM]
CC(C)CC(=O)c1cn2ccn(Cc3ccc(F)cc3)c(=O)c2c(O)c1=O [Example 387, 2-(4-fluorobenzyl)-9-hydroxy-7-(3-methylbutyryl)-2H-pyrido[1,2-a]pyrazine-1,8-dione hydrochloride]	10 to 100
CNC(=O)c1cn2c(c(O)c1=O)C(=O)N(Cc1ccc(F)c(F)c1)CC2 [Example 388, N-methyl-2-(3,4-difluorobenzyl)-9-hydroxy-1,8-dioxo-1,3,4,8-tetrahydro-2H-pyrido[1,2-a]pyrazine-7-carboxamide]	100 to 1000
COCC(C)(C)C(=O)c1cn2c(c(O)c1=O)C(=O)N(Cc1ccc(F)cc1)CC2 [Example 389, 2-(4-fluorobenzyl)-9-hydroxy-7-(3-methoxy-2,2-dimethylpropionyl)-3,4-dihydro-2H-pyrido[1,2-a]pyrazine-1,8-dione]	10 to 100
O=c1c(-c2ccncn2)cn2ccn(Cc3cccc(Cl)c3)c(=O)c2c1O [Example 391, 2-(3-chlorobenzyl)-9-hydroxy-7-(pyrimidin-4-yl)-2H-pyrido[1,2-a]pyrazine-1,8-dione hydrochloride]	10 to 100
O=C1c2c(O)c(=O)c(-c3ccncn3)cn2CCN1Cc1ccc(F)cc1 [Example 392, 2-(4-fluorobenzyl)-9-hydroxy-7-(pyrimidin-4-yl)-3,4-dihydro-2H-pyrido[1,2-a]pyrazine-1,8-dione hydrochloride]	10 to 100
O=C1c2c(O)c(=O)c(-c3ccncn3)cn2CCN1Cc1ccc(Cl)cc1 [Example 393, 2-(4-chlorobenzyl)-9-hydroxy-7-(pyrimidin-4-yl)-3,4-dihydro-2H-pyrido[1,2-a]pyrazine-1,8-dione hydrochloride]	10 to 100
O=C1c2c(O)c(=O)c(-c3ccncn3)cn2CCN1Cc1ccc(F)c(Cl)c1 [Example 394, 2-(3-chloro-4-fluorobenzyl)-9-hydroxy-7-(pyrimidin-4-yl)-3,4-dihydro-2H-pyrido[1,2-a]pyrazine-1,8-dione hydrochloride]	10 to 100
O=c1c(-c2ccncn2)cn2ccn(Cc3ccc(F)c(Cl)c3)c(=O)c2c1O [Example 395, 2-(3-chloro-4-fluorobenzyl)-9-hydroxy-7-(pyrimidin-4-yl)-2H-pyrido[1,2-a]pyrazine-1,8-dione hydrochloride]	< 10
CCCOc1cc(Cl)cc(CN2CCn3cc(-c4nccs4)c(=O)c(O)c3C2=O)c1 [Example 396, 2-(3-chloro-5-propoxybenzyl)-9-hydroxy-7-(thiazol-2-yl)-3,4-dihydro-2H-pyrido[1,2-a]pyrazine-1,8-dione hydrochloride]	10 to 100
CC(C)Oc1cc(Cl)cc(CN2CCn3cc(-c4nccs4)c(=O)c(O)c3C2=O)c1 [Example 397, 2-(3-chloro-5-isopropoxybenzyl)-9-hydroxy-7-(thiazol-2-yl)-3,4-dihydro-2H-pyrido[1,2-a]pyrazine-1,8-dione hydrochloride]	10 to 100
O=C1c2c(O)c(=O)c(-c3nccs3)cn2CCN1Cc1cc(Cl)cc(OCc2ccccc2)c1 [Example 398, 2-(3-benzyloxy-5-chlorobenzyl)-9-hydroxy-7-(thiazol-2-yl)-3,4-dihydro-2H-pyrido[1,2-a]pyrazine-1,8-dione hydrochloride]	10 to 100
O=c1c(-c2ccncn2)cn2ccn(Cc3ccc(Cl)cc3)c(=O)c2c1O [Example 399, 2-(4-chlorobenzyl)-9-hydroxy-7-(pyrimidin-4-yl)-2H-pyrido[1,2-a]pyrazine-1,8-dione hydrochloride]	< 10
O=C(Cc1cccnc1)Nc1cn2ccn(Cc3cccc(Cl)c3)c(=O)c2c(O)c1=O [Example 400, N-[2-(3-chlorobenzyl)-9-hydroxy-1,8-dioxo-1,8-dihydro-2H-pyrido[1,2-a]pyrazin-7-yl]-2-(pyridin-3-yl)acetamide hydrochloride]	< 10
O=C(Cc1ccncc1)Nc1cn2ccn(Cc3cccc(Cl)c3)c(=O)c2c(O)c1=O [Example 401, N-[2-(3-chlorobenzyl)-9-hydroxy-1,8-dioxo-1,8-dihydro-2H-pyrido[1,2-a]pyrazin-7-yl]-2-(pyridin-4-yl)acetamide hydrochloride]	10 to 100
O=C(Cc1ccccn1)Nc1cn2ccn(Cc3cccc(Cl)c3)c(=O)c2c(O)c1=O [Example 402, N-[2-(3-chlorobenzyl)-9-hydroxy-1,8-dioxo-1,8-dihydro-2H-pyrido[1,2-a]pyrazin-7-yl]-2-(pyridin-2-yl)acetamide hydrochloride]	10 to 100
O=c1c(-c2ccncn2)cn2ccn(Cc3cccc(F)c3)c(=O)c2c1O [Example 403, 2-(3-fluorobenzyl)-9-hydroxy-7-(pyrimidin-4-yl)-2H-pyrido[1,2-a]pyrazine-1,8-dione hydrochloride]	10 to 100
O=c1c(-c2cnccn2)cn2ccn(Cc3cccc(F)c3)c(=O)c2c1O [Example 404, 2-(3-fluorobenzyl)-9-hydroxy-7-(pyrazin-2-yl)-2H-pyrido[1,2-a]pyrazine-1,8-dione hydrochloride]	10 to 100

SMILES	IC50 [nM]
Cn1ncnc1-c1cn2ccn(Cc3ccc(F)c(Cl)c3)c(=O)c2c(O)c1=O [Example 405, 2-(3-chloro-4-fluorobenzyl)-9-hydroxy-7-(2-methyl-2H-1,2,4-triazol-3-yl)-2H-pyrido[1,2-a]pyrazine-1,8-dione hydrochloride]	< 10
CC(C)(C)CC(=O)Nc1cn2c(c(O)c1=O)C(=O)N(Cc1ccc(F)c(Cl)c1)CC2 [Example 406, N-[2-(3-chloro-4-fluorobenzyl)-9-hydroxy-1,8-dioxo-1,3,4,8-tetrahydro-2H-pyrido[1,2-a]pyrazin-7-yl]-3,3-dimethylbutyramide]	10 to 100
Cc1cn(Cc2cccc(F)c2)c(=O)c2c(O)c(=O)c(-c3ccccn3)cn12 [Example 407, 2-(3-fluorobenzyl)-9-hydroxy-4-methyl-7-(pyridin-2-yl)-2H-pyrido[1,2-a]pyrazine-1,8-dione hydrochloride]	10 to 100
Cc1cn(Cc2ccc(F)cc2)c(=O)c2c(O)c(=O)c(C(=O)C(C)(C)C)cn12 [Example 408, 7-(2,2-dimethylpropionyl)-2-(4-fluorobenzyl)-9-hydroxy-4-methyl-2H-pyrido[1,2-a]pyrazine-1,8-dione hydrochloride]	10 to 100
COCc1c(C(=O)C(C)(C)C)c(=O)c(O)c2n1CCN(Cc1ccc(F)cc1)C2=O [Example 409, 7-(2,2-dimethylpropionyl)-2-(4-fluorobenzyl)-9-hydroxy-6-methoxymethyl-3,4-dihydro-2H-pyrido[1,2-a]pyrazine-1,8-dione hydrochloride]	10 to 100
O=C(NCc1ccccn1)c1cn2c(c(O)c1=O)C(=O)N(Cc1ccc(F)cc1)CC2 [Example 410, N-(pyridin-2-ylmethyl)-2-(4-fluorobenzyl)-9-hydroxy-1,8-dioxo-1,3,4,8-tetrahydro-2H-pyrido[1,2-a]pyrazine-7-carboxamide hydrochloride]	10 to 100
O=C(NCc1ccco1)c1cn2c(c(O)c1=O)C(=O)N(Cc1ccc(F)cc1)CC2 [Example 411, N-(furan-2-ylmethyl)-2-(4-fluorobenzyl)-9-hydroxy-1,8-dioxo-1,3,4,8-tetrahydro-2H-pyrido[1,2-a]pyrazine-7-carboxamide hydrochloride]	10 to 100
CC(C)(C)C(=O)c1cn2c(c(O)c1=O)C(=O)N(Cc1ccc(F)cc1)CC2(C)C [Example 412, 7-(2,2-dimethylpropionyl)-2-(4-fluorobenzyl)-9-hydroxy-4,4-dimethyl-3,4-dihydro-2H-pyrido[1,2-a]pyrazine-1,8-dione hydrochloride]	10 to 100
CC1(C)CN(Cc2ccc(F)cc2)C(=O)c2c(O)c(=O)c(Br)cn21 [Example 413, 7-bromo-2-(4-fluorobenzyl)-9-hydroxy-4,4-dimethyl-3,4-dihydro-2H-pyrido[1,2-a]pyrazine-1,8-dione hydrochloride]	100 to 1000
CC1(C)CN(Cc2ccc(F)cc2)C(=O)c2c(O)c(=O)c(-c3ccccn3)cn21 [Example 414, 2-(4-fluorobenzyl)-9-hydroxy-4,47dimethyl-7-(pyridin-2-yl)-3,4-dihydro-2H-pyrido[1,2-a]pyrazine-1,8-dione hydrochloride]	100 to 1000
CN(C)c1ccc(CNC(=O)c2cn3c(c(O)c2=O)C(=O)N(Cc2ccc(F)cc2)CC3)cc1 [Example 415, N-(4-dimethylaminobenzyl)-2-(4-fluorobenzyl)-9-hydroxy.-1,8-dioxo-1,3,4,8-tetrahydro-2H-pyrido[1,2-a]pyrazine-7-carboxamide hydrochloride]	10 to 100
O=C1c2c(O)c(=O)c(-c3cnccn3)cn2CCN1Cc1cccc(Cl)c1 [Example 416, 2-(3-chlorobenzyl)-9-hydroxy-7-(pyrazin-2-yl)-3,4-dihydro-2H-pyrido[1,2-a]pyrazine-1,8-dione hydrochloride]	10 to 100
O=C1c2c(O)c(=O)c(-c3cnccn3)cn2CCN1Cc1ccc(F)cc1 [Example 417, 2-(4-fluorobenzyl)-9-hydroxy-7-(pyrazin-2-yl)-3,4-dihydro-2H-pyrido[1,2-a]pyrazine-1,8-dione hydrochloride]	10 to 100
O=C1c2c(O)c(=O)c(NS(=O)(=O)c3ccccc3)cn2CCN1Cc1ccc(F)c(Cl)c1 [Example 418, N-[2-(3-chloro-4-fluorobenzyl)-9-hydroxy-1,8-dioxo-1,3,4,8-tetrahydro-2H-pyrido[1,2-a]pyrazin-7-yl]benzenesulfonamide]	10 to 100
O=C1c2c(O)c(=O)c(NS(=O)(=O)Cc3ccccc3)cn2CCN1Cc1ccc(F)c(Cl)c1 [Example 419, N-[2-(3-chloro-4-fluorobenzyl)-9-hydroxy-1,8-dioxo-1,3,4,8-tetrahydro-2H-pyrido[1,2-a]pyrazin-7-yl]benzylsulfonamide]	< 10
O=C1c2c(O)c(=O)c(NS(=O)(=O)c3cccs3)cn2CCN1Cc1ccc(F)c(Cl)c1 [Example 420, N-[2-(3-chloro-4-fluorobenzyl)-9-hydroxy-1,8-dioxo-1,3,4,8-tetrahydro-2H-pyrido[1,2-a]pyrazin-7-yl]-2-thiophenesulfonamide]	10 to 100
